Where “and” joins values, the source holds several entries; their conditions need not be identical. Identical values can stand only once.
Assay: Repeated-treatment efficacy for removing an intravenous dose of 238Pu (excretion, tissue retention, clinical observations), female and male arms;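 for % Recovered Dose ART: abdominal tissue remainder incl GI tract reproductive organs spleen bladder and fat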
Assay type: in vivo, Swiss-Webster mice
Conditions: listed as 3,4,3-LI(1,2-HOPO); for % Recovered Dose Kidney / % Recovered Dose Liver / % Recovered Dose SKEL / % Recovered Dose SOFT / % Recovered Dose Total Feces / % Recovered Dose ART / % Recovered Dose Combined Body / % Recovered Dose Combined Excreta / % Recovered Dose Total Urine / % Recovered Dose GI Tract / % Recovered Dose Soft Tissue / % Recovered Dose Total Bone: male animals
Experimental: The objective of this study was to characterize the efficacy of 3,4,3-L1(1,2-HOPO) at enhancing elimination from an internal plutonium burden in female and male Swiss-Webster mice administered a soluble citrate complex of ^238Pu and treated multiple times, starting at 24 hours after the exposure. Efficacy was evaluated by comparing the tissue contents, urinary and fecal excretions of ^238Pu in treated animals versus untreated animals.
The medical countermeasure 3,4,3-L1(1,2-HOPO) was administered parenterally (ip) or orally (po) via consecutive injections or gavages (six daily or twelve twice daily) starting at 24 hours post contamination at the following four selected doses: 30 μmol/kg ip, 150 μmol/kg po, 300 μmol/kg po, and 600 μmol/kg po (equivalent to respective approximate human doses range of […], using the accepted conversion system of mouse doses into human equivalent doses—HED—based on body surface area). Oral doses also included the permeability enhancer selected during formulation development work.
• Challenge isotope: ^238Pu • Challenge dose: 25 nCi (i.e., approximately 0.8 μCi/kg) • Route of contamination: Intravenous (iv) tail-vein • Route of treatment: Intraperitoneal Injection (ip) or Oral (po) • Frequency of treatment: Multiple (once- or twice-daily for 6 days) doses, starting 24 hr postcontamination • Treatment dose calculation: Dose calculations (mg/kg or μmol/kg) for the decorporation agent were based on the individual body weight measured after contamination. • Study Duration: 11 days, in-life
c. […] Test article and control dose formulations were prepared within 1 day of dose administration, by weighing out the appropriate amount of test article, dispersing in vehicle. For ip solutions, the test article was used alone, while for oral suspensions, a mixture of test article and excipient (90:10, w:w) was used. The pH was adjusted to 7.0-7.4 for ip administration and 5.0-5.5 for oral administration with sterile NaOH. Dose formulations were prepared at room temperature and filter-sterilized. • Storage: 2-8° C.; refrigerated; protected from light. • Characterization: The concentration of each test article formulation was verified by high-performance liquid chromatography-mass spectrometry. • Test Article Handling: Test, reference, and control article formulations were handled with the use of eye protection, gloves, and a protective laboratory coat. • Correct Dose Assurance: The test article was weighed with calibrated balances. The administration of each dose formulation was properly documented, and the amount administered to each animal recorded.
e. Experimental Procedures (In-Life Evaluations and Euthanasia) • Contamination: Single administration by intravenous (iv) tail-vein injection (0.2 mL injection volume) under isoflurane anesthesia. Three standard 0.2 mL injections were performed into polyethylene bottles and pre-loaded with aliquots of concentrated nitric acid on each injection day. Six female and six male mice were culled for necropsy 1 hr post-contamination and were used as standards. A11 standards were processed and counted together with the final samples to allow verification of the contamination dose. • Dose Administration: Single administration by intraperitoneal injection (ip) or oral gavage (po) under isoflurane anesthesia. • Mortality/Morbidity: Assessed at least once daily. • Clinical Observations: Recorded once daily (4 hr post-dose on day of treatment), or more often as clinical signs warranted. […]

[1] = Day-11 necropsy, animal group I
[2] = Day-11 necropsy, animal group L
[3] = Day-11 necropsy, animal group M
[4] = male arm table, Day 11 necropsy, animal group I
[5] = male arm table, Day 11 necropsy, animal group L
[6] = male arm table, Day 11 necropsy, animal group M

## O=C(NCCCN(CCCCN(CCCNC(=O)c1cccc(=O)n1O)C(=O)c1cccc(=O)n1O)C(=O)c1cccc(=O)n1O)c1cccc(=O)n1O [3,4,3-L1(1,2-HOPO)]
Day-7 necropsy, animal group C
  % Recovered Dose Kidney: 0.22% and 0.15% and 0.21% and 0.17%
  % Recovered Dose Liver: 15.72% and 12.80% and 16.24% and 16.85%
  % Recovered Dose SKEL: 24.75% and 21.49% and 23.68% and 17.13%
  % Recovered Dose SOFT: 2.28% and 2.12% and 3.24% and 2.82%
  % Recovered Dose Total Feces: 34.40% and 32.67% and 50.44% and 35.35%
Day-7 necropsy, animal group E
  % Recovered Dose ART: 1.02% and 1.34% and 1.21% and 1.33%
  % Recovered Dose Combined Body: 30.49% and 40.14% and 34.97% and 37.95%
  % Recovered Dose Combined Excreta: 69.51% and 59.86% and 65.03% and 62.05%
  % Recovered Dose Kidney: 0.14% and 0.21% and 0.13% and 0.20%
  % Recovered Dose Liver: 9.72% and 15.67% and 11.76% and 13.58%
  % Recovered Dose SKEL: 17.72% and 20.95% and 20.71% and 20.84%
  % Recovered Dose SOFT: 1.89% and 1.96% and 1.16% and 2.00%
  % Recovered Dose Total Feces: 40.90% and 40.04% and 39.60% and 39.91%
  % Recovered Dose Total Urine: 28.61% and 19.82% and 25.43% and 22.13%
Day-7 necropsy, animal group F
  % Recovered Dose ART: 1.03% and 1.92% and 2.25% and 1.33%
  % Recovered Dose Combined Body: 30.37% and 39.36% and 36.59% and 31.04%
  % Recovered Dose Combined Excreta: 69.63% and 60.64% and 63.41% and 68.96%
  % Recovered Dose Kidney: 0.17% and 0.21% and 0.42%
  % Recovered Dose Liver: 7.14% and 17.14% and 15.20% and 10.27%
  % Recovered Dose SKEL: 20.00% and 18.02% and 16.63% and 16.58%
  % Recovered Dose SOFT: 2.03% and 2.08% and 2.10% and 2.66%
  % Recovered Dose Total Feces: 42.75% and 36.05% and 44.44% and 38.86%
  % Recovered Dose Total Urine: 26.88% and 24.59% and 18.97% and 30.09%
[1]
  % Recovered Dose Combined Body: 15.90% and 20.53% and 19.46% and 22.16% and 16.51% and 22.02% and 21.03% and 23.25%
  % Recovered Dose Combined Excreta: 84.10% and 79.47% and 80.54% and 77.84% and 83.49% and 77.98% and 78.97% and 76.75%
  % Recovered Dose GI Tract: 0.43% and 0.47% and 0.44% and 0.49% and 0.64% and 0.58% and 0.71%
  % Recovered Dose Kidney: 0.08% and 0.11% and 0.10% and 0.14% and 0.13% and 0.16%
  % Recovered Dose Liver: 2.60% and 1.91% and 2.22% and 2.29% and 3.02% and 2.09% and 2.92% and 2.34%
  % Recovered Dose Soft Tissue: 1.04% and 0.98% and 0.83% and 1.42% and 1.37% and 1.22% and 1.20%
  % Recovered Dose Total Bone: 11.74% and 17.07% and 15.87% and 17.81% and 11.38% and 18.21% and 16.06% and 19.05%
  % Recovered Dose Total Feces: 54.04% and 60.47% and 51.78% and 38.48% and 49.18% and 43.78% and 44.59% and 43.58%
[2]
  % Recovered Dose Combined Body: 38.48% and 43.87% and 28.88% and 28.44% and 32.53% and 32.57% and 26.76% and 36.08%
  % Recovered Dose Combined Excreta: 61.52% and 56.13% and 71.12% and 71.56% and 64.47% and 67.43% and 73.24% and 63.92%
  % Recovered Dose GI Tract: 0.99% and 1.04% and 1.13% and 1.03% and 1.21% and 0.97% and 0.90% and 0.93%
  % Recovered Dose Kidney: 0.10% and 0.15% and 0.19% and 0.14%
  % Recovered Dose Soft Tissue: 2.91% and 2.09% and 2.06% and 2.29% and 2.57% and 2.02% and 1.97% and 1.69%
  % Recovered Dose Total Bone: 25.77% and 24.60% and 16.37% and 19.43% and 22.08% and 18.56% and 15.85% and 25.23%
  % Recovered Dose Total Feces: 41.70% and 35.40% and 43.87% and 46.74% and 38.04% and 37.30% and 46.07% and 33.53%
  % Recovered Dose Total Urine: 19.82% and 20.73% and 27.24% and 24.82% and 26.43% and 30.12% and 27.17% and 30.39%
[3]
  % Recovered Dose Combined Body: 20.04% and 21.39% and 28.64% and 34.45% and 33.00% and 30.60% and 25.58% and 27.62%
  % Recovered Dose Combined Excreta: 79.96% and 78.61% and 71.36% and 65.55% and 67.00% and 69.40% and 74.42% and 72.38%
  % Recovered Dose GI Tract: 0.61% and 0.50% and 0.89% and 0.48% and 0.99% and 1.00% and 0.73% and 0.76%
  % Recovered Dose Kidney: 0.08% and 0.17% and 0.28% and 0.16% and 0.25% and 0.24% and 0.20% and 0.13%
  % Recovered Dose Liver: 3.86% and 3.49% and 8.37% and 6.17% and 12.45% and 9.96% and 3.83% and 6.08%
  % Recovered Dose Soft Tissue: 1.50% and 1.55% and 1.52% and 2.24% and 2.53% and 2.16% and 2.01% and 1.95%
  % Recovered Dose Total Bone: 13.99% and 15.68% and 17.58% and 25.41% and 16.78% and 17.24% and 18.80% and 18.71%
  % Recovered Dose Total Feces: 53.86% and 46.68% and 46.45% and 35.88% and 40.81% and 59.45% and 36.72% and 39.43%
[4]
  % Recovered Dose Urine per Day, Day 2: 3.96% and 5.51% and 4.41% and 4.63% and 4.05% and 5.30% and 3.86% and 5.05%
  % Recovered Dose Urine per Day, Day 3: 1.65% and 1.23% and 3.48% and 2.00% and 1.41% and 1.46% and 1.93%
  % Recovered Dose Urine per Day, Day 4: 0.77% and 0.85% and 0.98% and 1.08% and 0.65% and 0.92% and 0.89% and 0.93%
  % Recovered Dose Urine per Day, Day 5: 0.94% and 0.87% and 0.59% and 0.63% and 0.79% and 0.76% and 0.28% and 1.05%
  % Recovered Dose Urine per Day, Day 6: 0.65% and 0.41% and 0.44% and 0.32% and 0.35% and 0.48% and 0.51% and 0.55%
  % Recovered Dose Urine per Day, Day 7: 0.87% and 1.16% and 0.64% and 0.59% and 0.75% and 0.99% and 1.27%
  % Recovered Dose Urine per Day, Day 8: 0.32% and 0.70% and 0.71% and 0.52% and 0.77% and 0.79% and 0.51%
  % Recovered Dose Urine per Day, Day 9: 0.20% and 0.51% and 0.73% and 0.48% and 0.39% and 0.60% and 0.63%
  % Recovered Dose Urine per Day, Day 10: 0.58% and 0.74% and 0.92% and 0.42% and 0.40% and 0.38% and 0.41%
  % Recovered Dose Urine per Day, Day 11: 0.39% and 0.44% and 0.55% and 0.31% and 0.43% and 0.00% and 0.71%
[5]
  % Recovered Dose Urine per Day, Day 1: 12.59% and 16.03% and 21.48% and 17.40% and 21.11% and 22.45% and 21.35% and 20.51%
  % Recovered Dose Urine per Day, Day 2: 2.90% and 1.60% and 1.70% and 2.41% and 1.15% and 2.95% and 2.14% and 3.00%
  % Recovered Dose Urine per Day, Day 3: 1.04% and 0.84% and 1.21% and 0.62% and 1.08% and 1.06% and 0.54% and 1.49%
  % Recovered Dose Urine per Day, Day 4: 0.50% and 0.38% and 0.59% and 0.77% and 0.45% and 0.81% and 0.67% and 1.28%
  % Recovered Dose Urine per Day, Day 5: 0.64% and 0.28% and 0.60% and 0.52% and 0.67% and 0.50% and 0.69%
  % Recovered Dose Urine per Day, Day 6: 0.60% and 0.06% and 0.37% and 0.49% and 0.33% and 0.48% and 0.43%
  % Recovered Dose Urine per Day, Day 7: 0.61% and 0.22% and 0.72% and 1.23% and 0.46% and 0.44% and 0.51% and 0.75%
  % Recovered Dose Urine per Day, Day 8: 0.30% and 0.16% and 0.05% and 0.55% and 0.60% and 0.62%
  % Recovered Dose Urine per Day, Day 9: 0.21% and 0.30% and 0.20% and 0.22% and 0.55% and 0.27% and 0.25% and 0.67%
  % Recovered Dose Urine per Day, Day 10: 0.24% and 0.45% and 0.12% and 0.20% and 0.21% and 0.30% and 0.34% and 0.63%
  % Recovered Dose Urine per Day, Day 11: 0.20% and 0.41% and 0.40% and 0.14% and 0.18% and 0.34% and 0.31%
[6]
  % Recovered Dose Urine per Day, Day 2: 2.27% and 2.99% and 2.82% and 2.73% and 2.07% and 4.97% and 3.05%
  % Recovered Dose Urine per Day, Day 3: 0.81% and 1.49% and 1.40% and 1.64% and 1.14% and 1.43% and 1.07% and 1.00%
  % Recovered Dose Urine per Day, Day 4: 0.47% and 0.64% and 0.77% and 0.68% and 0.62% and 0.31% and 0.58% and 0.72%

Source: patent US11684614B2, “Formulations of hydroxypyridonate actinide/lanthanide decorporation agents” (priority 2017, dated 2023)
